Tested on: human airway model tissue
Details: e-cigarette vapor exposure day 20 to day 34; vs untreated 'no battery' tissue
From the text: The investigation compared how human airway model tissue was affected by e-cigarette vapors generated from two different vape-liquids, propylene glycol/vegetable glycerin ‘PG:VG’, and vitamin E acetate ‘VEA’.
Referring to FIGS. 30A-30B, illustration of experimental design used in research investigation, human airway model tissues were formed from day 0 to day 20, tissues were exposed to experimental vapors from day 20 to day 34.

## CC(=O)Oc1c(C)c(C)c2c(c1C)CCC(C)(CCC[C@H](C)CCC[C@H](C)CCCC(C)C)O2 (stereo partly shown) [VEA, vitamin E acetate]
  tissue morphology in stained cross-sections: present typical structure and are undamaged
